This is an account of results in publication PMC9866629, “Pharmacokinetics of Novel Furoxan/Coumarin Hybrids in Rats Using LC-MS/MS Method and Physiologically Based Pharmacokinetic Model” (Molecules, 2023).

“And” between values parts separate entries of the source, which are not always exact repeats. Equal values may be shown once. Read-outs that look alike come from different tables or passages of the source. Some results are limits rather than exact numbers.

Series [1] in a line: In vitro intrinsic clearance, disappearance via rat liver microsomes. The format is in vitro ADME. Particulars: for microsomal CLint: Sprague Dawley, rat, pooled liver microsomes, pH 7.4, rat hepatic microsomes; for microsomal CLint / CLint: Vmax divided by Km; for Km at 20 min: pooled rat liver microsomes, pH 7.4; for Km at 20 min / Vmax: rat hepatic microsomes 0.2 mg protein/mL, NADPH 1 mM, 20 min; for CLint: rat hepatic microsomes. Here is the method:
The incubation mixture with a final volume of 50 μL contained the testing compound, rat liver microsomes (0.2 mg protein/mL), phosphate buffer ([…], pH 7.4), and NADPH (1 mM). Before adding NADPH, the reaction mixture was preincubated in a shaking water bath at 37 °C for 5 min. 200 μL of methanol–acetonitrile mixture (1:1) containing IS was added to terminate the reaction after incubation for 20 min. Concentration of the testing compound was determined by LC-MS/MS after centrifugation at 14,000 rpm for 15 min. […] All experiments were performed in triplicate.
(§1) Vmax and Km were estimated via the nonlinear regression of the Michaelis–Menten model by using GraphPad Prism (Version 6.01, http://www.graphpad.com/). The PK parameters were determined from drug plasma concentration-time data by employing a noncompartmental approach using Phoenix WinNonlin (version 3.0).
(In general: Liver microsomes are vesicles of endoplasmic reticulum, rich in cytochrome P450 enzymes.)

Series [2] is described as follows: Pharmacokinetic study after intravenous administration to rats. The class given is in vivo, rat. As to conditions: for clearance / AUC(0-inf) / Cmax / MRT / Tmax / Vd / half-life / AUC(0-t): rat, plasma; for AUC(0-t): read-out: AUC(0–24 h). As to the method: Rats were randomly divided into three groups, namely A, B, and C, with six rats in each group. […] Blood samples (0.15–0.2 mL) were collected through the femoral artery into an Eppendorf tube moistened with heparinized 0.9% NaCl before intravenous injection (0 h) and at 0.083, 0.25, 0.5, 1, 2, 4, 8, 12, and 24 h after intravenous injection. The blood sample was immediately centrifuged at 3000 rpm for 10 min at a temperature of 4 °C, and the upper plasma sample was collected and stored at −80 °C until analysis.
The plasma samples were thawed at room temperature before determination. Further, 20 μL of plasma was pipetted into a 1.5 mL Eppendorf tube, and 80 μL of methanol–acetonitrile (1:1, v/v) solution containing 200 ng/mL IS was added to precipitate the proteins. The contents were mixed thoroughly via vortexing the plasma sample for 40 s. The supernatant was aspirated for LC-MS/MS analysis after centrifugation at 14,000 rpm for 15 min.
as §1

Series [3] is described as follows: PBPK modeling (Simcyp Rat). Particulars: blood, intravenous, in rats, calculated on the basis of B/P and the plasma clearance rate, read-out: liver blood clearance. The text has this: PBPK models were constructed with physical chemistry and in vitro PK parameters, such as molecular weight (MW), octanol–buffer partition coefficient (log Po:w), compound type, pKa, B/P, fu, and CLint, using Simcyp (Simcyp Rat Version 16, Sheffield, UK). Two physical chemistry parameters of log Po:w and pKa were predicted on the basis of the structure of the chemicals by using the ADMET Predictor (v.9.0, Lancaster, http://www.simulations-plus.com/, accessed on 9 September 2019). Other parameters, including B/P, fu, and CLint, were obtained through in vitro experiments as mentioned above. The time course of xenobiotic concentration in plasma was simulated, and the PBPK models were further optimized on the basis of the experimental in vivo PK parameters (AUC, Cmax, and time to reach Cmax (Tmax)). The prediction accuracy of the PBPK model was evaluated by introducing the deviation (fold error) of the predicted PK parameters and comparing them with the experimental ones. The equation of the fold error is shown below. A simulation with fold errors no greater than 2 is acceptable [36, 42]. (1) fold error=observed parameter/predicted parameter;if observed value>predicted value (2) fold error=predicted parameter/observed parameter;if predicted value>observed value

Series [4] in a line: Stability test of QC plasma samples (LC-MS/MS validation). Particulars: QC plasma samples 20–800 ng/mL, frozen at −80 °C for one week, n = 5. The format is physicochemical, rat. As to the method:
The concentration of the testing compound was calculated by using the calibration curves with seven dots (10, 25, 50, 100, 250, 500, and 1000 ng/mL). The calibration line was constructed by plotting the peak area ratio (y-axis) of analytes to IS versus the nominal concentration (x-axis). The specificity and selectivity were investigated by comparing the chromatograms of blank plasma samples with the corresponding samples spiked with testing compounds. The signal-to-noise ratio (S/N) of the lower limit of quantification (LLOQ) was at least at 10. The linearity of the calibration graph was validated, and the calculated concentrations of the calibration standards should be all within ±15% of the nominal value, except for the LLOQ of ±20%. The linear correlation coefficient (R^2) should be 0.9900 or greater. The intra- and interday precisions and accuracy of the method were assessed by determining the quality control (QC) samples of […] (six samples at each concentration level) over 3 consecutive days. The coefficient of variation (CV) should not exceed 20% at LLOQ and should be within 15% for QCs. The relative error (RE) should be within 80%–120% at LLOQ and within 85%–115% for QCs. Recovery was assessed by comparing peak area of nominal QC plasma samples with peak area of the spike-after extraction samples (six samples at each concentration level). The matrix effect was evaluated by comparing peak area of the spike-after extraction samples with that of the analytes spiked in pure water (six samples at each concentration level). The recovery and matrix factor should be within 85%–115%. The variation in recovery and matrix effect should be less than 15%. The dilution integrity test was performed for samples exceeding the upper limit of quantification (ULOQ). QCs were prepared (5 samples at each concentration level) and frozen at […] for one week. LC-MS/MS analysis was performed to calculate the stability (RE). Samples of 25 μg/mL (n = 6) were diluted with blank matrix to 0.5 μg/mL, which was within the calibration line range, and the RE should be within 85–115%.

The nature of series [5]: Free drug fraction (fu) in rat plasma by ultrafiltration. The class given is in vitro ADME. As to the method: The fu of furoxan/coumarin hybrids in plasma was measured through the ultrafiltration method by using Amicon Ultra-15 ultrafiltration centrifuge tube (0.5 mL, 3-kDa membrane, Millipore, Bedford, MA, USA). […] One batch was incubated in a shaking water bath at 37 °C for 30 min, and the other batch was incubated for 60 min. After incubation, a plasma sample was transferred into ultrafiltration tube and centrifuged at 10,000 rpm for 20 min. The free compound in the filtrated fraction was determined directly by LC-MS/MS. All experiments were performed in triplicate.

Series [6] in a line: Blood-to-plasma concentration ratio (B/P) in rat blood. The format is in vitro ADME. Particulars: 37 °C, 1 μg/mL (CY-14S-4A83, CY-16S-4A43), 5 μg/mL (CY-16S-4A93). Here is the method:
Two batches of blood samples were prepared in parallel. One batch of the blood samples was then incubated in a shaking water bath at 37 °C for 30 min, and the other batch was incubated for 60 min. After incubation, one 150 μL aliquot of blood samples was centrifuged at 1500 rpm for 5 min, and the concentrations of the testing compound in the resulting plasma portion after extraction were determined by LC-MS/MS. In parallel, another 50 uL aliquot of the blood incubation sample was transferred into an Eppendorf tube and lysed by three-cycle freeze/thaw method. After the cell-lysis and extraction, the concentration of testing compound in the whole blood sample was determined by LC-MS/MS. The B/P was determined directly by the ratio of drug concentration in the whole blood to the plasma concentration. All experiments were performed in triplicate.

[7] abbreviates: 1.67 mg/kg, experimental value compared with PBPK prediction, read-out: experimental CL.
[8] abbreviates: single dose 1.67 mg/kg, read-out: CL (converted).

For `Cc1c(Cc2ccc(C(F)(F)F)cc2)c(=O)oc2cc(OCCOc3no[n+]([O-])c3S(=O)(=O)c3ccccc3)ccc12` [CY-16S-4A93], in series [1], the intrinsic metabolic clearance (microsomal CLint) was 174 µL/min/mg, the Km at 20 min was 1.3 ± 0.2 µM and the Vmax is on record as 220.0 pmol/min/mg Protein. Further, in series [1] (listed as CY-14S-4A93), the Vmax was found to be 220.0 ± 14.1 pmol/min/mg Protein and the CLint was 173.83 µL/min/mg. Further, the “plasma concentration within 24 h (stays above LLOQ)” value in series [2] (1.67 mg/kg) is more than 10 ng/mL. The clearance in series [2] (setting [7]) was 2.08 mL/min. Also, in series [2] (single dose 1.67 mg/kg), the AUC(0-inf) was 3850 ± 1770 ng·h/mL, the Cmax worked out at 9380 ± 4210 ng/mL, the MRT was 132 ± 42 min and the Tmax was 6 min. Also, in series [2] (single dose 1.67 mg/kg), the volume of distribution (Vd) was 0.68 ± 0.38 L/kg, the half-life was 54 ± 12 min and the AUC(0-t) turned out to be 3850 ± 1770 ng·h/mL. Also, in series [2] (setting [8]), the clearance is 8.34 mL/min/kg. Further, in series [3], the clearance was 0.24 mL/min. The “Stability (RE)” value in series [4] is recorded as 86.5–94.7%.

For the compound `Cc1c(Cc2ccc(F)cc2)c(=O)oc2cc(OCCOc3no[n+]([O-])c3S(=O)(=O)c3ccccc3)ccc12` [CY-14S-4A83], in series [5] (rat, fresh rat plasma), the unbound share (fraction unbound) at 30 min was 0.0298 ± 0.002 and the fraction unbound at 60 min was 0.0217 ± 0.0003. Besides, in series [5] (value used in the PBPK modeling), the f u is reported as 0.02. Also, in series [6] (incubation time 30 min), the B/P amounted to 12.11 ± 0.094. In addition, the B/P in series [6] (incubation time 60 min) was 12.34 ± 0.03. In addition, in series [1], the intrinsic clearance (microsomal CLint) was 336 µL/min/mg; the Km at 20 min stood at 18 ± 2.3 µM; the Vmax is 6044.0 pmol/min/mg Protein and 6044.0 ± 290.8 pmol/min/mg Protein; the CLint is on record as 336.033 µL/min/mg. Also, in series [2] (0.5 mg/kg), the “plasma concentration within 24 h (stays above LLOQ)” value is on record as more than 10 ng/mL. In addition, the clearance in series [2] (0.5 mg/kg, experimental value compared with PBPK prediction, read-out: experimental CL) is 1.73 mL/min. Besides, in series [2] (single dose 0.5 mg/kg), the area under the curve AUC(0-inf) was 1340 ± 475 ng·h/mL, the peak concentration (Cmax) stood at 946 ± 452 ng/mL, the mean residence time MRT was determined as 366 ± 90 min and the Tmax is 12 ± 12 min. In series [2] (single dose 0.5 mg/kg), the distribution volume (Vd) came to 0.56 ± 0.15 L/kg, the half-life is 60 ± 12 min and the AUC(0-t) stood at 1310 ± 462 ng·h/mL. The clearance in series [2] (single dose 0.5 mg/kg, read-out: CL (converted)) was 6.91 mL/min/kg. Also, the clearance in series [3] was 0.23 mL/min. In addition, the “Stability (RE)” value in series [4] is listed as 88–94.4%.

`Cc1c(Cc2ccc(C#N)cc2)c(=O)oc2cc(OCCOc3no[n+]([O-])c3S(=O)(=O)c3ccccc3)ccc12` [CY-16S-4A43]: in series [1], the microsomal CLint was 333 µL/min/mg; the Km at 20 min worked out at 1.4 ± 0.3 µM; the Vmax is 481.2 pmol/min/mg Protein and 481.2 ± 30.0 pmol/min/mg Protein. Moreover, the “time within which plasma concentration dropped to less than 10 ng/mL” value in series [2] (1.67 mg/kg) lay in the range of 2 to 4 h. In addition, in series [2] (setting [7]), the clearance is 10.9 mL/min. In addition, in series [2] (single dose 1.67 mg/kg), the AUC(0-inf) was determined as 673 ± 182 ng·h/mL, the peak level (Cmax) was 1210 ± 482 ng/mL, the mean residence time (MRT) came to 270 ± 60 min and the Tmax turned out to be 6 ± 6 min. In series [2] (single dose 1.67 mg/kg), the Vd is 2.03 ± 0.63 L/kg, the half-life is 30 ± 6 min and the AUC(0-t) worked out at 669 ± 182 ng·h/mL. In series [2] (setting [8]), the clearance is 43.7 mL/min/kg. Also, the clearance in series [3] is 1.87 mL/min. Further, the “Stability (RE)” value in series [4] is on record as 86–99.5%.

As a reminder, the microsomal CLint is a measure of how fast metabolising enzymes remove a compound, apart from limits set by blood flow. One may read the Km as the substrate concentration at which the rate is half of its maximum. For orientation: AUC(0-inf) means the area under the concentration-time curve extrapolated to infinity. A higher AUC(0-inf) goes with more exposure. Broadly, the Cmax is the maximum level reached in the sampled fluid or tissue. A word on the MRT: it is a mean duration of stay, worked out from the concentration-time curve. By Tmax is commonly meant the time at which the peak concentration occurs. One may read the Vd as a proportionality between amount in the body and measured concentration, not a real space. Lower therefore signals confinement near the circulation. As usually defined, the half-life is the time in which the quantity being followed falls by half. Read a low half-life as fast loss. For orientation: fraction unbound means the share of the substance not bound to proteins or other matrix. Lower therefore signals extensive binding.
